Reference: patent publication US7291451B2, “Modulation of pericyte proliferation” (XOMA Technology Ltd., priority 2000, dated 2007)
“Also recorded” adds a separate entry of the source.

Key:
[1] = system: bovine retinal pericytes (BRPC); assay: Cell growth assay (DNA content, cell number) in bovine retinal pericytes; type: cell-based; conditions: for stimulation of proliferation: 5, 10 or 15% FBS
Procedure: (§1) A cell growth assay was performed as follows: Cells were plated onto 12-well culture plates and incubated overnight. The cells were treated with vehicle, vascular endothelial growth factor (VEGF, R & D Systems, Minneapolis, Minn.) at 25 ng/ml, serum, compounds, or combinations thereof. The medium is changed during the incubation period, with fresh medium and fresh test compound added every 2 days. After incubation for indicated time period at 37° C., the cells were lysed in 0.1% SDS and DNA content was measured by means of Hoechst-33258 dye and a fluorometer (model TKO-100, Hoefer Scientific Instruments, San Francisco, Calif.). It has been shown that total cellular DNA content measured in this manner correlates closely with actual cell number as determined by hemocytometer counting of trypsinized cells.
(§2) Determinations were performed in triplicate and all experiments were repeated at least three times. Results are expressed as the mean ±standard deviation, unless otherwise indicated. Statistical analysis employed Student's t-test or analysis of variance to compare quantitative data populations with normal distributions and equal variance. Data were analyzed using the Mann-Whitney rank sum test or the Kruskal-Wallis test for populations with non-normal distributions or unequal variance. A P-value of <0.05 was considered statistically significant.
Primary cultures of bovine retinal pericytes (BRPC) were isolated by homogenization and a series of filtration steps as described in King et al., J. Clin. Invest., 1985, 75:1028-36. BRPC were cultured in Dulbecco's modified Eagle's medium (DMEM, Gibco BRL, Grand Island, N.Y.) with 5.5 mM glucose and 20% fetal bovine serum (FBS, Gibco BRL, Grand Island, N.Y.). Cells were characterized for homogeneity by their immunoreactivity with monoclonal antibody 3G5 [Nayak et al., J. Exp. Med. 1988, 167:1003-15]. Cells remained morphologically unchanged under these conditions, as confirmed by light microscopy. Only cells from passages 2 through 7 were used for the experiments.
A cell growth assay was performed as described above in Example 1 and the medium was changed, with fresh medium and fresh test compound added every 2 or 3 days, preferably every 2 days. […] At 20% FBS a six to seven fold increase of total DNA was detected.

[2] = system: MAP kinase phosphorylation; assay: MAP kinase phosphorylation in BRPC; type: cell-based, bovine; conditions: 5 μg/ml, 1 to 60 minutes
Procedure: Experiments were also performed in which the level of MAP kinase phosphorylation was determined in BRPC treated with 75 μg/ml rBPI21 or 5 μg/ml XMP.679. […] These observations indicate that exemplary BPI protein products rBPI21 and, to a lesser extent, XMP.679, enhance MAP kinase phosphorylation in BRPC.

[3] = system: human retinal pericytes (HRPC); assay: Human retinal pericyte proliferation assay (Methylene blue, OD650); type: cell-based; conditions: 5% FBS
Procedure: In addition to studies with primary cell cultures of bovine retinal pericytes described above, experiments were performed with a human cell line obtained from Clonetics (San Diego, Calif.) of retinal pericytes (catalog no. CC-2542 PyCRt). These human retinal pericytes (HRPC) were cultured in Dulbecco's modified Eagle's medium (DMEM, Gibco BRL, Grand Island, N.Y.) with 5.6 mM glucose and 20% fetal bovine serum (FBS, Gibco BRL, Grand Island, N.Y.).
Proliferation assays were performed as follows: HRPC were plated onto 24-well culture plates (3000 cells/well) in 5 or 10% FBS-DMEM with 5.6 mM glucose and incubated overnight. The cells were treated once with vehicle alone or with vehicle and several concentrations of XMP.627 ([SEQ ID NO: 4]), XMP.664 ([SEQ ID NO: 5]), XMP.679 ([SEQ ID NO: 3]), or XMP.728 ([SEQ ID NO: 6]) for 5 or 6 days. The medium was not changed, nor were additional amounts of test compounds added as described in the experiments of part A above. The cells were fixed and stained with Methylene blue and proliferation assayed by observation at OD650.

[4] = system: bovine retinal endothelial cells (BREC); assay: Cell growth assay (DNA content) in bovine retinal endothelial cells; type: cell-based
Procedure: Primary cultures of bovine retinal endothelial cells (BREC) were isolated by homogenization and a series of filtration steps as described in King et al., J. Clin. Invest., 1985, 75:1028-36. BREC were subsequently cultured with endothelial cell basal medium (EBM; Clonetics, San Diego, Calif.). supplemented with 10% plasma-derived horse serum (PDHS), 50 mg/l heparin, and 50 μg/ml endothelial cell growth factor (ECGF, Roche, Indianapolis, Ind.). Cells were characterized for homogeneity by their immunoreactivity with anti-factor VIII antibody. Cells remained morphologically unchanged under these conditions, as confirmed by light microscopy. Only cells from passages 2 through 7 were used for the experiments.
as §1, §2

For “XMP.679: BPI-derived peptide derived from BPI domain II, SEQ ID NO: 3 (KLFKAQAKAKG; XMP.679; listed as Homo sapiens)”, the stimulation of proliferation ([1]; 5 μg/mL) was about 2 fold, the “growth increase as potency of 20% FBS” value ([1]; 5 μg/ml, 5% FBS) was 30 to 40% and the “growth compared with 20% FBS” value ([1]; 5 μg/ml, 10% FBS) was “equaled the effect of 20% FBS”. For the same substance, the retinal pericyte proliferation ([1]; 5 μg/ml, 10% FBS) was “greatest increase”, the “growth compared with 15 or 20% FBS (trend)” value ([1]; 5 μg/ml, 15% FBS) was “may have more growth effect than either 15 or 20% FBS” and the stimulation of proliferation ([1]; 15 μg/mL) was “no enhancement”. The effect on growth ([1]; 15 μg/ml (higher concentration), 5% FBS, 3 or 6 days) was “did not increase growth; also recorded: did not show-a growth stimulating effect”, the effect on growth ([1]; 15 μg/ml, 10% FBS) was “did not have much growth effect” and the retinal pericyte proliferation ([1]; 20 μg/ml, 10% FBS) was “did not”. The “pericyte DNA content” value ([1]; 1, 5, 10, and 15 μg/ml, 10% FBS) was “Statistically significant increases”, the effect on growth ([1]; 1 or 5 μg/ml, 5% FBS, 6 days) was “increased growth” and the effect on growth ([1]; 15% FBS, concentration not given) was “did not increase the growth of pericyte in 15% FBS to any significant amount”. The “effect on MAP kinase phosphorylation” value [2] was “increased MAP kinase phosphorylation over time”, the “effect on HRPC growth” value ([3]; 10 μg/ml and higher) was “slight growth inhibitory effect” and the “concentration of maximum HRPC proliferation” value [3] was “approximately 5 μg/ml”. The “effect on HRPC proliferation” value ([3]; approximately 0.5, 1, 5, 8 μg/ml) was “increased HRPC proliferation in a dose responsive manner”, the “effect on DNA content” value ([4]; 1 μg/ml compound, with and without VEGF) was “did not have a significant effect” and the “effect on VEGF-dependent growth” value ([4]; VEGF 25 ng/ml plus 1 μg/ml compound) was “had no effect”. The “effect on VEGF-dependent growth” value ([4]; VEGF 25 ng/ml plus 5 and 15 μg/ml compound) was “totally prevented VEGF-dependent growth” and the effect on growth ([4]; compound alone, 15 μg/ml, not statistically significant) was “slight growth inhibitory effect”.
